Counter-ions that a name gives are not always drawn. Like-named read-outs stand apart in the source and are kept apart here.
Legend:
[1] = target: T1, A-II receptor (Bos taurus, UniProt P25104); experiment: Inhibition of binding of angiotensin-II to angiotensin receptor (radioreceptor assay, 125I-A-II); set-up: species or system bovine (membrane fraction of bovine adrenal cortex); conditions: for inhibition at 10 µM: read-out: Radioreceptor assay, inhibition of A-II binding, 1 × 10^-5 M; for inhibition at 1 µM: read-out: Radioreceptor assay, inhibition of A-II binding, 1 × 10^-6 M
T1 construct: An A-II receptor was prepared from the membrane fraction of bovine adrenal cortex; from tissue; host or cells: bovine adrenal cortex, membrane fraction
T1 sequence (P25104 1-359): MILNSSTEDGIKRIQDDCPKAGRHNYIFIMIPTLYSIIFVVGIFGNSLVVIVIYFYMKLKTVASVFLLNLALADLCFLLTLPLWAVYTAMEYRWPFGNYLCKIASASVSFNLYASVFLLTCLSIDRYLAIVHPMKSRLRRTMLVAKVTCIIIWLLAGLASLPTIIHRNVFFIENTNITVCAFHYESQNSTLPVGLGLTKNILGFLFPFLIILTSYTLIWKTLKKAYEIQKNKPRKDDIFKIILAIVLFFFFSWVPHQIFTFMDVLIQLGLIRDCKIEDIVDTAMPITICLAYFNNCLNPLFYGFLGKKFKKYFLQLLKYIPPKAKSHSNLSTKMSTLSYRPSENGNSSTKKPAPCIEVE
Description: Inhibition of binding of angiotensin-II to angiotensin receptor
An A-II receptor was prepared from the membrane fraction of bovine adrenal cortex.

[2] = tested on: pressor action of A-II; experiment: Inhibitory effect on pressor action of A-II (oral drug, i.v. A-II 100 ng/kg); assay type: in vivo, Jcl:SD rats (9 week old, male); conditions: Rattus norvegicus, po, rats, A-II 100 ng/kg i.v.; for inhibition in vivo at 3 mg/kg: 3 mg/kg p.o., read-out: Pressor response to A II (p.o.), 3 mg/kg (percent inhibition); for inhibition in vivo at 30 mg/kg: 30 mg/kg p.o., read-out: Pressor response to A II (p.o.), 30 mg/kg (percent inhibition)
From the text: Inhibitory effect of the compound of this invention on pressor action of A-II
Jcl:SD rats (9 week old, male) were used. On the day prior to that of the experiment, these animals were applied with cannulation into the femoral artery and vein under anesthesia with pentobarbital Na. The animals were fasted but allowed free access to drinking water until the experiment was started. On the day of conducting the experiment, the artery cannula was connected with a blood-pressure transducer, and the average blood pressure was recorded by means of polygraph. […] The drugs were orally administered, and then, at each point of the measurement, A-II was administered intravenously, and the pressor action was similarly measured. By comparing the pressor action before and after administration of the drug, the percent inhibition by the drug on A-II-induced pressor action was evaluated.

[3] = 1 × 10^-5 M, bovine adrenal cortex membrane, 125I-A-II, 1 h room temperature
[4] = 1 × 10^-6 M, bovine adrenal cortex membrane, 125I-A-II, 1 h room temperature

Row | SMILES | inhibition at 10 µM [1, 3] [%] | inhibition at 1 µM [1, 4] [%] | inhibition in vivo at 3 mg/kg [2] [%] | inhibition in vivo at 30 mg/kg [2] [%] | inhibition at 10 µM [1] [%] | inhibition at 1 µM [1] [%]
1 | CCCCc1nc2cccc(C(=O)OCc3oc(=O)oc3C)c2n1Cc1ccc(-c2ccccc2-c2nn[nH]n2)cc1 [Working Example 39] | 97 | 83 | > 70 | > 70 | – | –
2 | CCCCc1nc2c(C(=O)OC)cccc2n1Cc1ccc(-c2ccccc2-c2nn[nH]n2)cc1 [Reference Example 29, reference compound] | 61 | 6 | – | < 30 | – | –
3 | CCCCc1nc2cccc(C(=O)OCOC(=O)C(C)(C)C)c2n1Cc1ccc(-c2ccccc2-c2nn[nH]n2)cc1 [Working Example 36] | 95 | 86 | > 70 | > 70 | – | –
4 | CCCCc1nc2cccc(CC(=O)OCC)c2n1Cc1ccc(-c2ccccc2-c2nn[nH]n2)cc1 [Working Example 17, Ethyl [[2-butyl-1-[2'-(1H-tetrazol-5-Yl)biphenyl-4-yl]methyl]benzimidazol-7-yl]acetate] | 93 | 75 | 30 to 50 | – | – | –
5 | CCCCc1nc2cccc(C(=O)OC)c2n1Cc1ccc(-c2ccccc2-c2nnn[nH]2)cc1 [Working Example 34, Methyl 2-butyl-1-[[2'-(1H-tetrazol-5-yl)biphenyl-4-yl]methyl]benzimidazole-7-carboxylate] | 90 | 66 | > 70 | > 70 | – | –
6 | CCCCc1nc2cccc(C(=O)O)c2n1Cc1ccc(-c2ccccc2-c2nnn[nH]2)cc1 [Working Example 1, 2-Butyl-1-[[2'-(1H-tetrazol-5-yl)biphenyl-4-yl]methyl]benzimidazole-7-carboxylic acid] | 95 | 78 | > 70 | > 70 | – | –
7 | CCCCc1nc2ccccc2n1Cc1ccc(-c2ccccc2-c2nnn[nH]2)cc1 [Reference Example 17, 2-Butyl-1-[[2'-(1H-tetrazol-5-yl)biphenyl-4-yl]methyl]benzimidazole, reference compound] | 87 | 52 | < 30 | < 30 | – | –
8 | CC(C)c1nc2cccc(C(=O)O)c2n1Cc1ccc(-c2ccccc2-c2nnn[nH]2)cc1 [Working Example 28, 2-Isopropyl-1-[[2'-(1H-tetrazol-5-yl)biphenyl-4-yl]methyl]benzimidazole-7-carboxylic acid] | 98 | 88 | 30 to 50 | – | – | –
9 | CCCCc1nc2cccc(COC)c2n1Cc1ccc(-c2ccccc2-c2nnn[nH]2)cc1 [Working Example 19, 2-butyl-7-methoxymethyl-1-[[2'-(1H-tetrazol-5-yl)biphenyl-4-yl]methyl]benzimidazole sodium salt] | – | – | 30 to 50 | – | 90 | 60
10 | CCCc1nc2cccc(C(=O)OC)c2n1Cc1ccc(-c2ccccc2-c2nnn[nH]2)cc1 [Working Example 31, Methyl 2-propyl-1-[[2'-(1H-tetrazol-5-yl)biphenyl-4-yl)methyl]benzimidazole-7-carboxylate] | 92 | 78 | > 70 | > 70 | – | –
11 | CCCCc1nc2cccc(C(=O)OC(C)OC(=O)OC3CCCCC3)c2n1Cc1ccc(-c2ccccc2-c2nn[nH]n2)cc1 (stereo not drawn) [Working Example 37] | 94 | 65 | > 70 | > 70 | – | –
12 | CCCCc1nc2cc(C)cc(C(=O)O)c2n1Cc1ccc(-c2ccccc2-c2nn[nH]n2)cc1 [Working Example 10, 2-Butyl-5-methyl-1-[[2,-(1H-tetrazol-5-yl)biphenyl-4-yl]methyl]benzimidazole-7-carboxylic acid] | 90 | 40 | > 70 | > 70 | – | –
13 | CCCCc1nc2cccc(C(=O)O)c2n1Cc1ccc(-c2ccccc2-c2nn[nH]n2)cc1 [Working Example 4, 2-Butyl-1-[[2'-(1H-tetrazol-5-Yl)biphenyl-4-yl]methyl]benzimidazole-7-carboxylic acid 2-sodium salt] | 91 | 71 | > 70 | > 70 | – | –
14 | CCCCc1nc2cc(Cl)cc(C(=O)OC)c2n1Cc1ccc(-c2ccccc2-c2nnn[nH]2)cc1 [Working Example 12, Methyl 2-butyl-5-chloro-1-[[2'-(1H-tetrazol-5-yl)biphenyl-4-yl]methyl]benzimidazole-7-carboxylate] | 91 | 65 | 50 to 70 | > 70 | – | –
15 | CCCCc1nc2cc(C)cc(C(=O)OC)c2n1Cc1ccc(-c2ccccc2-c2nn[nH]n2)cc1 [Working Example 9] | 92 | 45 | 50 to 70 | – | – | –
16 | CCCCc1nc2cccc(CO)c2n1Cc1ccc(-c2ccccc2-c2nnn[nH]2)cc1 [Working Example 16, 2-Butyl-7-hydroxymethyl-1-[[2'-(1H-tetrazol-5-yl)biphenyl-4-yl]methyl]benzimidazole] | 90 | 67 | – | > 70 | – | –
17 | CCc1nc2cccc(C(=O)O)c2n1Cc1ccc(-c2ccccc2-c2nn[nH]n2)cc1 [Working Example 27] | 96 | 91 | > 70 | > 70 | – | –

Further lines, with some results ahead:

Row | inhibition at 10 µM [1, 3] [%] | inhibition at 1 µM [1, 4] [%] | SMILES | inhibition in vivo at 3 mg/kg [2] [%] | inhibition in vivo at 30 mg/kg [2] [%] | inhibition at 10 µM [1] [%] | inhibition at 1 µM [1] [%]
18 | 88 | 47 | CCCCc1nc2ccc(OC)cc2n1Cc1ccc(-c2ccccc2-c2nn[nH]n2)cc1 [compound 19, reference compound] | < 30 | – | – | –
19 | 76 | 45 | CSCc1nc2cccc(C(=O)O)c2n1Cc1ccc(-c2ccccc2-c2nnn[nH]2)cc1 [Working Example 51, 2-Methylthiomethyl-1-[[2'-(1H-tetrazol-5-yl)biphenyl-4-yl]methyl]benzimidazole-7-carboxylic acid] | > 70 | > 70 | – | –
20 | 73 | 35 | COCc1nc2cccc(C(=O)O)c2n1Cc1ccc(-c2ccccc2-c2nnn[nH]2)cc1 [Working Example 49, 2-Methoxymethyl-1-[[2'-(1H-tetrazol-5-yl)biphenyl-4-yl]methyl]benzimidazole-7-carboxylic acid] | > 70 | > 70 | – | –
21 | 79 | 22 | CCCCc1nc2ccc(Cl)cc2n1Cc1ccc(-c2ccccc2-c2nn[nH]n2)cc1 [compound 21, 2-Butyl-6-chloro-1-[[2,-(1H-tetrazol-5-yl)biphenyl-4-yl]methyl]benzimidazol, reference compound] | – | < 30 | – | –
22 | 87 | 48 | CCCCc1nc2ccccc2n1Cc1ccc(-c2ccccc2C(=O)O)cc1 [compound 26, 2-[4-(2-Butylbenzimidazol-1-yl)methylphenyl]benzoic acid, reference compound] | – | – | – | –
23 | 53 | 7 | CCCCc1nc2ccc(C(=O)O)cc2n1Cc1ccc(-c2ccccc2-c2nn[nH]n2)cc1 [compound 50, reference compound] | < 30 | < 30 | – | –
24 | 94 | 77 | CCCCc1nc2ccc(C(=O)OC)cc2n1Cc1ccc(-c2ccccc2-c2nnn[nH]2)cc1 [compound 49, Methyl 2-butyl-1-[[2'-(1H-tetrazol-5-yl)biphenyl-4-yl]methyl]benzimidazole-6-carboxylate, reference compound] | < 30 | < 30 | – | –
25 | 40 | 1 | CCCCc1nc2c(C(N)=O)cccc2n1Cc1ccc(-c2ccccc2-c2nnn[nH]2)cc1 [compound 30, 2-Butyl-1-[[2'-(1H-tetrazol-5-yl)biphenyl-4-yl]methyl]benzimidazole-4-carboxamide, reference compound] | < 30 | < 30 | – | –

— patent US5250554A, “Benzimidazole derivatives useful as angiotensin II inhibitors” (Takeda Chemical Industries, Ltd., priority 1989, dated 1993)
